Entries after “also recorded” stand apart in the source; their conditions may differ.
Key:
[1] = biological target: T1, tyrosinase (Agaricus bisporus, UniProt C7FF04); format: biochemical, mushroom
Target sequence in this assay (C7FF04 2-392): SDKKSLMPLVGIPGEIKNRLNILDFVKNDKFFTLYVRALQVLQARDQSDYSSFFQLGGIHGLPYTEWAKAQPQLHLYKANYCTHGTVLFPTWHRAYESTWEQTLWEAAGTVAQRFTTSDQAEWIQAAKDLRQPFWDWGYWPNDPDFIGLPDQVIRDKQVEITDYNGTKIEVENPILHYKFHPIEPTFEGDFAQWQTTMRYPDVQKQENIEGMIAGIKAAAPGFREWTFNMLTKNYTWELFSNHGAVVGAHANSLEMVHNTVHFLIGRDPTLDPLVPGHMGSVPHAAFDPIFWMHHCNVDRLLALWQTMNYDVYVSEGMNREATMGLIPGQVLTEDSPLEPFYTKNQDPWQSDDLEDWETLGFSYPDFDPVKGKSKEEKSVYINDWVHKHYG

[2] = system: fresh-cut apple slices; assay: Anti-browning experiment with fresh-cut apple slices; settings: apple slices dipped 5 min, stored at 4 °C; compared with kojic acid
[3] = biological target: T1, tyrosinase; settings: Lineweaver-Burk plots; Vmax decreased, Km unchanged
Target sequence in this assay (C7FF04 2-392): as above

[4] = Cell viability assay; format: cell-based; settings: human, HEK-293 cells
[5] = biological target: T1, tyrosinase; assay: Fluorescence spectrum quenching of tyrosinase; format: binding, mushroom
Target sequence in this assay (C7FF04 2-392): as above

[6] = biological target: T1, tyrosinase; assay: ANS-binding fluorescence spectrum quenching; set-up: species or system mushroom; settings: 6j 0–59.41 μM
Target sequence in this assay (C7FF04 1-392): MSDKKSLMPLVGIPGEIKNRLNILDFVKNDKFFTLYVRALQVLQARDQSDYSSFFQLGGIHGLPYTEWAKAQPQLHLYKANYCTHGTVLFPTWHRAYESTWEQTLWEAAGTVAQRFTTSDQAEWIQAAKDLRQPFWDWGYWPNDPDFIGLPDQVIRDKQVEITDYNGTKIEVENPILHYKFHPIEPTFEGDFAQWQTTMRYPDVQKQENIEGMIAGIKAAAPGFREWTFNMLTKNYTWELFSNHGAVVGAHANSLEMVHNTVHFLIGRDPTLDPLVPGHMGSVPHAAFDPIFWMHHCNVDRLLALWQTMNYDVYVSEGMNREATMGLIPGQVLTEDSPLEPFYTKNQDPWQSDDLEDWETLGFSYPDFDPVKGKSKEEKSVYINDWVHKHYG

[7] = plot of Lg[(F0−F)/F] against Lg[Q]

For `CCOc1cccc(C=O)c1OCc1cc(=O)c(O)co1` [6i], the “Inhibitory activity against tyrosinase (in words)” value (“Inhibitory activity” for short) [1] was “relatively lower inhibitory activity”.
In the case of `COc1cc(C=O)cc(Br)c1OCc1cc(=O)c(O)co1` [6k], the “Inhibitory activity” value [1] is reported as “relatively lower inhibitory activity”.
With `Cc1cc(C=O)cc(C)c1OCc1cc(=O)c(O)co1` [6h] the “Inhibitory activity” value [1] was “relatively lower inhibitory activity”.
For `O=Cc1ccc(OCc2cc(=O)c(O)co2)cc1F` [6j], the “Anti-browning effect (L*, ΔE, visual assessment)” value [2] was “could delay the enzymatic browning of fresh-cut apples; also recorded: stronger anti-browning effect than kojic acid”, the Inhibition type [3] was “noncompetitive inhibitor” and the viability at 24 h, 1 µM [4] was 97.1 ± 2.49%. For the same compound, the viability at 24 h, 4 µM [4] was 106 ± 8.83%, the viability at 24 h, 16 µM [4] was 102 ± 10.1% and the viability at 24 h, 64 µM [4] was 105 ± 7.27%. The viability at 24 h, 256 µM [4] was 88.6 ± 3.61%, the Type of quenching ([5]; Stern-Volmer analysis) was “static quenching” and the “Ksv (Stern-Volmer quenching constant)” value ([5]; excitation 280 nm, 6j 4.99–24.79 μM) was 7040 M⁻¹. The “Ka (binding constant)” value [5, 7] was 28900 M⁻¹, the “n (binding sites)” value [5, 7] was 1.24 and the “Kq (biomolecular quenching constant)” value ([5]; τ0 10^−8 s) was 7.04e+11 M⁻¹ s⁻¹. For the same compound, the “Anti-tyrosinase activity relative to the positive control kojic acid” value ([1]; ratio of IC50 values) was “nine folds more active” and the “ANS-binding fluorescence: maximum emission peak wavelength and intensity” value [6] was “did not present an obvious change”.
In the case of `COc1cccc(C=O)c1OCc1cc(=O)c(O)co1` [6g], the “Inhibitory activity” value [1] is reported as “relatively lower inhibitory activity”.
For `COc1cc(C=O)cc(OC)c1OCc1cc(=O)c(O)co1` [6c], the “Inhibitory activity” value [1] was “relatively lower inhibitory activity”.
